We go through three compounds from patent US10172824B2, “Crystal forms of scutellarin aglycone and preparation thereof” (YUNNAN INSTITUTE OF MATERIA MEDICA, priority 2014, dated 2019).

The structures appear in SMILES notation. Where two headings read alike, the source gives them in different places.

Data set [1] in a line: Stability of crystal forms. To be noted: room temperature below 50° C.
For data set [2] the following is noted: 360 mg scutellarin orally to a subject, 5 h (blood collected at 1, 3, 5, 8 h; determined only at 5 h); cited from earlier work.
For data set [3] the following is noted: compared with scutellarin; cited from earlier work.
Data set [4] concerns MCAO-induced ischemia-reperfusion rat. The data set is described as follows: Cerebral infarction percentage 48 h after reperfusion (TTC staining) in MCAO ischemia/reperfusion rats. In kind it is in vivo. Here is the method:
SD male rat was fasted one night, with free access to water. At the day of experiment, the rat was anesthetized by intraperitoneal injection of 35% chloral hydrate (350 mg/kg), and fixed on its back. The skin was incised along the neck median line to expose the carotid artery at the right side, and the internal and external carotid artery were separated. 3# nylon wire (a diameter of 0.285 mm) was inserted from the free end of the external carotid artery, introduced into the internal carotid artery from the distal end of the external carotid artery, and inserted at the artery of Willis's circle in brain, to effectively occlude the middle cerebral artery. The inserted nylon wire was 18˜20 mm away from carotid artery bifurcation. The free end of the external carotid artery and the intra cavitary nylon wire were ligated, to prevent bleeding. […] After middle cerebral artery occlusion (MCAO) for 2 h, the nylon wire was carefully drawn out from the internal carotid artery, and the internal carotid artery was subjected to reperfusion. […] The animals were grouped depending on the score of nerve function. Three groups were classified in the experiment, 15 animals for each group. […] In the sham-operated group and the model control group, an equal volume of 0.3% sodium carboxymethyl cellulose (CMC-Na) was administered. […] The rat was decapitated and the brain was taken 48 h after reperfusion, and was quickly frozen. The brain was cut along the coronal plane to obtain a 2 mm-thick slice. The brain slice was put in 1% TTC stain solution, and stained at 37° C. in dark by incubation for 30 min. After fixing with 10% formaldehyde solution for 1 week, the digits and images were stored in computer by digital camera imaging system. The infarction area and the whole brain area were determined by Medical Microscopic image Compute-aided Analysis System (MIAS) of Image Center of Beihang University, and the cerebral infarction percentage was calculated (the percentage of the infarction area in the whole brain area). […]

For data set [5] the following is noted: cited from earlier work; for substances detected in rat plasma: oral.
Data set [6] deals with ischemia/reperfusion rats. The data set is described as follows: Evaluation of the degree of nerve function impairment (behavior score) in MCAO ischemia/reperfusion rats. In kind it is in vivo, rat. As for the experimental part: SD male rat was fasted one night, with free access to water. At the day of experiment, the rat was anesthetized by intraperitoneal injection of 35% chloral hydrate (350 mg/kg), and fixed on its back. The skin was incised along the neck median line to expose the carotid artery at the right side, and the internal and external carotid artery were separated. 3# nylon wire (a diameter of 0.285 mm) was inserted from the free end of the external carotid artery, introduced into the internal carotid artery from the distal end of the external carotid artery, and inserted at the artery of Willis's circle in brain, to effectively occlude the middle cerebral artery. The inserted nylon wire was 18˜20 mm away from carotid artery bifurcation. The free end of the external carotid artery and the intra cavitary nylon wire were ligated, to prevent bleeding. […] After middle cerebral artery occlusion (MCAO) for 2 h, the nylon wire was carefully drawn out from the internal carotid artery, and the internal carotid artery was subjected to reperfusion. […] The animals were grouped depending on the score of nerve function. Three groups were classified in the experiment, 15 animals for each group. […] In the sham-operated group and the model control group, an equal volume of 0.3% sodium carboxymethyl cellulose (CMC-Na) was administered. […] 2.3.1 Evaluation of the degree of nerve function impairment: the behavioral disorder of the animal was scored by double blind method at 1 h (before administration), 12 h, 24 h, 36 h, 48 h after reperfusion, according to the score standards in the following table, so as to evaluate the degree of nerve function impairment, wherein the total score is 16, the higher the score is, the more serious the degree of nerve function impairment is in the animal (Li Qian, Wang Qiujuan, Guo Qinglong, Protective effect of TQ0701-2 on cerebral ischemia reperfusion injury in rats [J]. CHINESE JOURNAL OF CLINICAL PHARMACOLOGY AND THERAPEUTICS, 2010, 15(1): 36-40.) Data was processed by the statistical analysis software SPSS11.5, and the results were expressed by x±s, and mathematical statistics were performed by using t-test for normal distribution data and using rank-sum test for skewed distribution.

For `O=c1cc(-c2ccc(O)cc2)oc2cc(O)c(O)c(O)c12` [crystal form A, 5,6,7-trihydroxy-2-(4-hydroxyphenyl)-4H-benzopyran-4-one], in data set [1], the “stability of crystal form” value is reported as “the most stable crystal forms”.

For the compound `O=C(O)[C@H]1O[C@@H](Oc2cc3oc(-c4ccc(O)cc4)cc(=O)c3c(O)c2O)[C@H](O)[C@@H](O)[C@@H]1O` [scutellarin], in data set [2], the “blood concentration of scutellarin” value was 20 ng/mL.

Regarding `O=c1cc(-c2ccc(O)cc2)oc2cc(O)c(O)c(O)c12` [scutellarin aglycone, 5,6,7-trihydroxy-2-(4-hydroxyphenyl)-4H-benzopyran-4-one], in data set [3], the “oral absorption relative to scutellarin” value was “about 3 fold” and the “permeability in gastrointestinal tract” value is “higher permeability in gastrointestinal tract than scutellarin”. In data set [4] (crystal form A, 45.8 mg/kg intragastric, compared to model control group, P<0.05), the “reducing rate of cerebral infarction area” value was 42.46%. Besides, the “Cerebral infarction percentage (%)” value in data set [4] (ischemia/reperfusion rats, 45.8 mg/kg, TTC stain, x ± s, n = 15) was 9.16 ± 0.09 %. In addition, the “Reducing rate (%)” value in data set [4] (reduction of cerebral infarction percentage compared to the model control group, 45.8 mg/kg) came to 42.46%. In addition, the “substances detected in rat plasma” value in data set [5] (20 mg/kg scutellarin aglycone) was “only scutellarin was detected”. For the same compound, in data set [5] (200 mg/kg scutellarin aglycone), the “substances detected in rat plasma” value was “both scutellarin aglycone and scutellarin could be detected”. Also, the metabolic stability result in data set [5] (rats, intragastric, relative to scutellarin) is recorded as “metabolically stable relative to scutellarin”. The “improvement rate of nerve function disorder” value in data set [6] (crystal form A, 45.8 mg/kg intragastric, 48 h, compared to model control group, P<0.05) is recorded as 34.97%. In addition, the “Behavior score at different time after reperfusion, 1 h” value in data set [6] (ischemia/reperfusion rats, 45.8 mg/kg, 1 h after reperfusion (before administration), total score 16, x ± s, n = 15) worked out at 10.57 ± 2.22. Also, the “Behavior score at different time after reperfusion, 12 h” value in data set [6] (ischemia/reperfusion rats, 45.8 mg/kg, 12 h after reperfusion, total score 16, x ± s, n = 15) turned out to be 7.96 ± 2.29. Further, the “Behavior score at different time after reperfusion, 24 h” value in data set [6] (ischemia/reperfusion rats, 45.8 mg/kg, 24 h after reperfusion, total score 16, x ± s, n = 15) was 7.15 ± 2.56. In addition, in data set [6] (ischemia/reperfusion rats, 45.8 mg/kg, 36 h after reperfusion, total score 16, x ± s, n = 15), the “Behavior score at different time after reperfusion, 36 h” value is 6.23 ± 2.87. For the same compound, the “Behavior score at different time after reperfusion, 48 h” value in data set [6] (ischemia/reperfusion rats, 45.8 mg/kg, 48 h after reperfusion, total score 16, x ± s, n = 15) is recorded as 5.69 ± 2.67.
